ChEMBL document CHEMBL5649169 (ChemMedChem, 2018)

What was measured:
Ephrin type-B receptor 4 = Ephrin type-B receptor 4 (Homo sapiens, UniProt P54760); type: cell-based, HEK293T
Ephrin type-B receptor 6 = Ephrin type-B receptor 6 (Homo sapiens, UniProt O15197); assay: Inhibition of Nano Luc-fused full length C-terminal EPHB6 (unknown origin) expressed in HEK293T cells using NanoGlo as substrate incubated for 2 hrs in presence of tracer by NanoBRET assay; type: cell-based
[1] = target: Ephrin type-B receptor 4 (Homo sapiens) (UniProt P54760)
[2] = target: Ephrin type-B receptor 3 (Homo sapiens) (UniProt P54753); further: assay method not described here
[3] = target: Alanine--tRNA ligase, cytoplasmic (Homo sapiens) (UniProt P49588); further: assay method not described here
[4] = target: Acetyl-CoA carboxylase 1 (Homo sapiens) (UniProt Q13085); further: assay method not described here
[5] = target: Atypical kinase COQ8A, mitochondrial (Homo sapiens) (UniProt Q8NI60); further: assay method not described here
[6] = target: RAC-alpha serine/threonine-protein kinase (Homo sapiens) (UniProt P31749); further: assay method not described here
[7] = target: Delta-1-pyrroline-5-carboxylate synthase (Homo sapiens) (UniProt P54886); further: assay method not described here
[8] = target: Fructose-bisphosphate aldolase A (Homo sapiens) (UniProt P04075); further: assay method not described here
[9] = target: ADP-ribosylation factor-like protein 1 (Homo sapiens) (UniProt P40616); further: assay method not described here
[10] = target: ATP synthase F(0) complex subunit g, mitochondrial (Homo sapiens) (UniProt O75964); further: assay method not described here
[11] = target: Coiled-coil domain-containing protein 22 (Homo sapiens) (UniProt O60826); further: assay method not described here
[12] = target: Serine/threonine-protein kinase MRCK gamma (Homo sapiens) (UniProt Q6DT37); further: assay method not described here
[13] = target: Cyclin-dependent kinase 12 (Homo sapiens) (UniProt Q9NYV4); further: assay method not described here
[14] = target: Cyclin-dependent kinase 13 (Homo sapiens) (UniProt Q14004); further: assay method not described here
[15] = target: Cyclin-dependent kinase 4 (Homo sapiens) (UniProt P11802); further: assay method not described here
Cofilin-1 (Homo sapiens) = Cofilin-1 (Homo sapiens) (UniProt P23528); further: assay method not described here
[16] = target: Eukaryotic translation initiation factor 3 subunit G (Homo sapiens) (UniProt O75821); further: assay method not described here
[17] = target: Elongation factor 1-gamma (Homo sapiens) (UniProt P26641); further: assay method not described here
[18] = target: Glycogen synthase kinase-3 alpha (Homo sapiens) (UniProt P49840); further: assay method not described here
[19] = target: Histone deacetylase 1 (Homo sapiens) (UniProt Q13547); further: assay method not described here
[20] = target: Histone H1.4 (Homo sapiens) (UniProt P10412); further: assay method not described here
[21] = target: Scaffold protein ILK (Homo sapiens) (UniProt Q13418); further: assay method not described here
[22] = target: Insulin receptor (Homo sapiens) (UniProt P06213); further: assay method not described here
[23] = target: Integrin alpha-6 (Homo sapiens) (UniProt P23229); further: assay method not described here
[24] = target: Leucine-rich PPR motif-containing protein, mitochondrial (Homo sapiens) (UniProt P42704); further: assay method not described here
[25] = target: DNA replication licensing factor MCM2 (Homo sapiens) (UniProt P49736); further: assay method not described here
[26] = target: Unconventional myosin-If (Homo sapiens) (UniProt O00160); further: assay method not described here
[27] = target: Proliferation-associated protein 2G4 (Homo sapiens) (UniProt Q9UQ80); further: assay method not described here
[28] = target: Protein kinase C alpha type (Homo sapiens) (UniProt P17252); further: assay method not described here
[29] = target: Uncharacterized protein FLJ45252 (Homo sapiens) (UniProt Q6ZSR9); further: assay method not described here
[30] = target: Large ribosomal subunit protein uL5 (Homo sapiens) (UniProt P62913); further: assay method not described here
[31] = target: Large ribosomal subunit protein eL27 (Homo sapiens) (UniProt P61353); further: assay method not described here
[32] = target: Large ribosomal subunit protein P1 (Homo sapiens) (UniProt P05386); further: assay method not described here
[33] = target: Small ribosomal subunit protein uS9 (Homo sapiens) (UniProt P62249); further: assay method not described here
[34] = target: Protein S100-A11 (Homo sapiens) (UniProt P31949); further: assay method not described here
[35] = target: Protein transport protein Sec23B (Homo sapiens) (UniProt Q15437); further: assay method not described here
Septin-7 (Homo sapiens) = Septin-7 (Homo sapiens) (UniProt Q16181); further: assay method not described here
[36] = target: Serine/arginine-rich splicing factor 3 (Homo sapiens) (UniProt P84103); further: assay method not described here
[37] = target: Transcription elongation regulator 1 (Homo sapiens) (UniProt O14776); further: assay method not described here
[38] = target: Transmembrane protein 161A (Homo sapiens) (UniProt Q9NX61); further: assay method not described here
[39] = target: Heat shock protein 75 kDa, mitochondrial (Homo sapiens) (UniProt Q12931); further: assay method not described here
[40] = target: Thioredoxin (Homo sapiens) (UniProt P10599); further: assay method not described here
[41] = target: Neurosecretory protein VGF (Homo sapiens) (UniProt O15240); further: assay method not described here
[42] = target: 14-3-3 protein eta (Homo sapiens) (UniProt Q04917); further: assay method not described here
Wherever ED50 is given: assay method not described here.

Sequence of Protein transport protein Sec23B (Homo sapiens) (Q15437 whole entry): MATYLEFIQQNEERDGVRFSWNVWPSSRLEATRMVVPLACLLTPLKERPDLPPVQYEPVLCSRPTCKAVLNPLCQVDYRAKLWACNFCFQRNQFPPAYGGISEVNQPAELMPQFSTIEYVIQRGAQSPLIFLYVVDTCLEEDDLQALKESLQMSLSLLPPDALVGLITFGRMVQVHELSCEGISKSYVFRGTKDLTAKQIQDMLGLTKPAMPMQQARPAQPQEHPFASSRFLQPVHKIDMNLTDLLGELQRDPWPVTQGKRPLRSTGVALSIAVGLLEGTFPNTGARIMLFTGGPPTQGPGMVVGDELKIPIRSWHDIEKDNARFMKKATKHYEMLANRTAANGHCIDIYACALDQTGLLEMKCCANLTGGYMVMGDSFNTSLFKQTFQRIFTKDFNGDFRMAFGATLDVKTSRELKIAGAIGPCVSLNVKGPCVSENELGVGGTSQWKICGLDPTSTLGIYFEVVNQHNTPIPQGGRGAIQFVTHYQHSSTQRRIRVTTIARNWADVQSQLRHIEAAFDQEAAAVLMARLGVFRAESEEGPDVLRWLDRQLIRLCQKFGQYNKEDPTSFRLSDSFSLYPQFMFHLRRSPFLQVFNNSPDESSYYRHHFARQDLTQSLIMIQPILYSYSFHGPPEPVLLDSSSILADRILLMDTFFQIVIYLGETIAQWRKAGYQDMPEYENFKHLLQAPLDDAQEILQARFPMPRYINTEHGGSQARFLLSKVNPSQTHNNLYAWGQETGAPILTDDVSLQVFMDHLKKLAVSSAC
Sequence of Ephrin type-B receptor 3 (Homo sapiens) (P54753 whole entry): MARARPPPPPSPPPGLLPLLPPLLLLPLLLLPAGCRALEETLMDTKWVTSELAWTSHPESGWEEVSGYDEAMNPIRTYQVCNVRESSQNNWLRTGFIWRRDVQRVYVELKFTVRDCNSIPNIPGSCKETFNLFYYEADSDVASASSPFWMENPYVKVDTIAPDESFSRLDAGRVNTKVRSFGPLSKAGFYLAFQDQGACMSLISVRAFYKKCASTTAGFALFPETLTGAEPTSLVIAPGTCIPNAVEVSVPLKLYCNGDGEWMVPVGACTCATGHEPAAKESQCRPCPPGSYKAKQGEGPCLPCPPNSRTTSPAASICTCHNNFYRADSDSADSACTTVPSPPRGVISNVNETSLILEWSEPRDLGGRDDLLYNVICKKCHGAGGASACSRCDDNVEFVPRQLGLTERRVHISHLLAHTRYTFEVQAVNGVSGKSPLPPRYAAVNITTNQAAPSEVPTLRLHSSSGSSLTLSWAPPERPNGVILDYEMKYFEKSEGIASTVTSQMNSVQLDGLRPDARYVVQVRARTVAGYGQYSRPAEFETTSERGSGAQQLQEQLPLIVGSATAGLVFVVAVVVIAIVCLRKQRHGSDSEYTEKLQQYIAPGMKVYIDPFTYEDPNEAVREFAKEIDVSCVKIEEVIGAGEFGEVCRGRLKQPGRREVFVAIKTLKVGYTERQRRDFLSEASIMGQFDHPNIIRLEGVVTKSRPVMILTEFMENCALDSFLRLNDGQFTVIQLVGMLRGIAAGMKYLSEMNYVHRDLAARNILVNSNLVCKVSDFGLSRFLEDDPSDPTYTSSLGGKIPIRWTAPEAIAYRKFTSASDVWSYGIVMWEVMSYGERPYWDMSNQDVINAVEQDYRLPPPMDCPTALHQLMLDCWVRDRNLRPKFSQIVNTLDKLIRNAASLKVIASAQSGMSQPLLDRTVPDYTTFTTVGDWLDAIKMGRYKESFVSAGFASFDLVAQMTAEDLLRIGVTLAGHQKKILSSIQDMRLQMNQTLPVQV
Sequence of Ephrin type-B receptor 4 (P54760 whole entry, the tested form may be a part): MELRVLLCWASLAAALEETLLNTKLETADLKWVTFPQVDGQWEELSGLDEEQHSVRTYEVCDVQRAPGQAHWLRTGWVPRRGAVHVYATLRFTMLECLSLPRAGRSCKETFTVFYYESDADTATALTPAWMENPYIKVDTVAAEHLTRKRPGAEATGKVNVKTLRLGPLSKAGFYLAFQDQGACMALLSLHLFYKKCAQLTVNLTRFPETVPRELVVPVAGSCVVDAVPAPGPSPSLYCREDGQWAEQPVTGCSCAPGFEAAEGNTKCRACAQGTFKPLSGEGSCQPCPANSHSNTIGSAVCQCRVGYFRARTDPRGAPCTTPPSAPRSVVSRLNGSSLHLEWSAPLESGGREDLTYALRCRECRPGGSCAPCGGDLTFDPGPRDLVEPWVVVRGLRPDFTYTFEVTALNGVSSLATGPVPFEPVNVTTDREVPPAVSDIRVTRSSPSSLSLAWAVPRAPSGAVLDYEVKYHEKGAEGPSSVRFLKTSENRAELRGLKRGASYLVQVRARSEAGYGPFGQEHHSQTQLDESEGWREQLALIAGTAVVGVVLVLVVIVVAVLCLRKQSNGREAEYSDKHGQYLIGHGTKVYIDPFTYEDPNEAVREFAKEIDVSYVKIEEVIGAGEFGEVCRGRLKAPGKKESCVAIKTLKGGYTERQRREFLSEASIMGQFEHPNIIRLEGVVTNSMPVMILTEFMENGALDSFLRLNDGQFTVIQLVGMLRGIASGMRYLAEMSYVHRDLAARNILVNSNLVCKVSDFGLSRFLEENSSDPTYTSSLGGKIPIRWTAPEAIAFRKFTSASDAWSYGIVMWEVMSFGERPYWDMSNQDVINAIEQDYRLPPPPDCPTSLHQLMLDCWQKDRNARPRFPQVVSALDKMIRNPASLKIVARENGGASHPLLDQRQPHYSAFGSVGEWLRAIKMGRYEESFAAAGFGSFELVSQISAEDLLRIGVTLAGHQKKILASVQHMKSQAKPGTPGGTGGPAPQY
Sequence of Ephrin type-B receptor 4 (Homo sapiens) (P54760 whole entry): as the sequence (P54760 whole entry, the tested form may be a part) above
Sequence of Histone H1.4 (Homo sapiens) (P10412 whole entry): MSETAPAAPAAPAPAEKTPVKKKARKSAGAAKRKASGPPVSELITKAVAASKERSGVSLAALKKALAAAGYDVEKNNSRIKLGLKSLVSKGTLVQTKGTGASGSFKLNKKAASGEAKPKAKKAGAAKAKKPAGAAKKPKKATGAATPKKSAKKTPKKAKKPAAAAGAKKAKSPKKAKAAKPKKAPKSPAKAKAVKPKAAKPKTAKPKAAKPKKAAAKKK
Sequence of Coiled-coil domain-containing protein 22 (Homo sapiens) (O60826 whole entry, the tested form may be a part): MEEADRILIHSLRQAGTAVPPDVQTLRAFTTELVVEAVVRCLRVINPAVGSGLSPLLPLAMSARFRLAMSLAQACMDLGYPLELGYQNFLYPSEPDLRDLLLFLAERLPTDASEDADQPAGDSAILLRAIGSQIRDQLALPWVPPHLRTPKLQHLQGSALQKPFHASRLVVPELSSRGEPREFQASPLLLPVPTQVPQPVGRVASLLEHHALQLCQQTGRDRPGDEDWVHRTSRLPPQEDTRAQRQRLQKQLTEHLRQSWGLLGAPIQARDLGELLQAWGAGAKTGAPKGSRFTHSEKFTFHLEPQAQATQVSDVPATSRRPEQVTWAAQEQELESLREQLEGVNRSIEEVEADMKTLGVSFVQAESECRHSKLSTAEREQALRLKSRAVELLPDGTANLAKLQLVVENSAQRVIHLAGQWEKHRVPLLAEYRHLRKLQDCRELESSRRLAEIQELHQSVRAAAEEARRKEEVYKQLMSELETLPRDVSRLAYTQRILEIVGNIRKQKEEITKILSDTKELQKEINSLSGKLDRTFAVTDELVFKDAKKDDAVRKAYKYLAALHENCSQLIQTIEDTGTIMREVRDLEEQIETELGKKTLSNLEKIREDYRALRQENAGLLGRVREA
Sequence of Transcription elongation regulator 1 (Homo sapiens) (O14776 whole entry): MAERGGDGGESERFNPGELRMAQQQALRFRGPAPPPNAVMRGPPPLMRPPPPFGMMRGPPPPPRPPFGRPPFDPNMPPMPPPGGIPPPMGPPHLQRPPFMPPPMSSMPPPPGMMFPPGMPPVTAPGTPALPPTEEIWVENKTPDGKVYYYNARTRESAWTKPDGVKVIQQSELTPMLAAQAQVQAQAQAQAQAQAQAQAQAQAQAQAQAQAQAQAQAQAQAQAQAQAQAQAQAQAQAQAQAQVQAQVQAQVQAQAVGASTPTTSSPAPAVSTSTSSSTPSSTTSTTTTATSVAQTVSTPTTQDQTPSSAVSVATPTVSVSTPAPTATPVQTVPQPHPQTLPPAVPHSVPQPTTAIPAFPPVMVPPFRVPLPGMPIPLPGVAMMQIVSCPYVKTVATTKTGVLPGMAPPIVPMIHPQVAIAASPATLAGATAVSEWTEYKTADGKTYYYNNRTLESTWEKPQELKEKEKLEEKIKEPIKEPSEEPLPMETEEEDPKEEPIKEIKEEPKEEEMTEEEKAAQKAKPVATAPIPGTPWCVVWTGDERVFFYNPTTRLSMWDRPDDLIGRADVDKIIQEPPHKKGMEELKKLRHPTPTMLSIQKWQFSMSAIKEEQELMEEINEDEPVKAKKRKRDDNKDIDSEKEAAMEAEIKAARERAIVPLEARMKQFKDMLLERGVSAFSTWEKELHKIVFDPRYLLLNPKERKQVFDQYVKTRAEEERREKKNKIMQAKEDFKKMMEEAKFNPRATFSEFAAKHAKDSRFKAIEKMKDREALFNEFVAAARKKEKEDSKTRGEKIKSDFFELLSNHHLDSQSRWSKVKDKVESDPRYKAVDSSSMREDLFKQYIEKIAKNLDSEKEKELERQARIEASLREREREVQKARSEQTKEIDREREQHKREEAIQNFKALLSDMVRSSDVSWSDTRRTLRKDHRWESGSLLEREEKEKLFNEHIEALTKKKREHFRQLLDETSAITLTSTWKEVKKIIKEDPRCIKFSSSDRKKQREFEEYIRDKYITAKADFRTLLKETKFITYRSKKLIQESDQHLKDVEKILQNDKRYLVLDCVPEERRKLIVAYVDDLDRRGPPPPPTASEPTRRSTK
Sequence of Serine/arginine-rich splicing factor 3 (Homo sapiens) (P84103 whole entry): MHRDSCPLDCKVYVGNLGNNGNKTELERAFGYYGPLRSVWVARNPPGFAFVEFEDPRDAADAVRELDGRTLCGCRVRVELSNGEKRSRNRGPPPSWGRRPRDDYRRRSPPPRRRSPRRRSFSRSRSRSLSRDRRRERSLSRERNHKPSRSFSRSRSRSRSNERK
Sequence of Protein S100-A11 (Homo sapiens) (P31949 whole entry): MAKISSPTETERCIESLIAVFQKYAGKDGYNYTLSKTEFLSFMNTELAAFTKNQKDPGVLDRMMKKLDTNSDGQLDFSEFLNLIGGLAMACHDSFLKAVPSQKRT

**Q.** Which IC50 (Ephrin type-B receptor 4) does the source give for `Cc1ccc(C(=O)Nc2cccc(C(F)(F)F)c2)cc1Nc1nc(-c2cccnc2)nc2c1cnn2C` here?
**A.** The IC50 was 0.003 µM.

**Q.** What about the IC50 (Ephrin type-B receptor 6) of the same molecule?
**A.** The IC50 was 4.48 µM.

**Q.** What about the ED50 [1] of the same molecule?
**A.** The ED50 was 1.4 µM.

**Q.** And the ED50 [2]?
**A.** The ED50 was 2.64 µM.

**Q.** And the ED50 [3]?
**A.** Its ED50 is 0.00373 µM.

**Q.** What about the ED50 [4] of the same molecule?
**A.** Its ED50 is 16.4 µM.

**Q.** What about the ED50 [5] of the same molecule?
**A.** Its ED50 is 0.39 µM.

**Q.** And the ED50 [6]?
**A.** The ED50 was 33.2 µM.

**Q.** What about the ED50 [7] of the same molecule?
**A.** Its ED50 is 224 µM.

**Q.** What about the ED50 [8] of the same molecule?
**A.** Its ED50 is 3.97 µM.

**Q.** And the ED50 [9]?
**A.** Its ED50 is 0.000716 µM.

**Q.** And the ED50 [10]?
**A.** The ED50 was 2.64 µM.

**Q.** What about the ED50 [11] of the same molecule?
**A.** The ED50 was 2.25 µM.

**Q.** And the ED50 [12]?
**A.** The ED50 was 17.5 µM.

**Q.** And the ED50 [13]?
**A.** The ED50 was 0.00103 µM.

**Q.** What about the ED50 [14] of the same molecule?
**A.** Its ED50 is 17.8 µM.

**Q.** And the ED50 [15]?
**A.** Its ED50 is 0.000606 µM.

**Q.** And the ED50 (Cofilin-1 (Homo sapiens))?
**A.** The ED50 was 7.3 µM.

**Q.** What about the ED50 [16] of the same molecule?
**A.** The ED50 was 0.00468 µM.

**Q.** And the ED50 [17]?
**A.** The ED50 was 0.0114 µM.

**Q.** And the ED50 [18]?
**A.** The ED50 was 0.00363 µM.

**Q.** And the ED50 [19]?
**A.** Its ED50 is 5.81 µM.

**Q.** What about the ED50 [20] of the same molecule?
**A.** The ED50 was 62.9 µM.

**Q.** What about the ED50 [21] of the same molecule?
**A.** Its ED50 is 57.4 µM.

**Q.** And the ED50 [22]?
**A.** The ED50 was 0.163 µM.

**Q.** What about the ED50 [23] of the same molecule?
**A.** Its ED50 is 0.0163 µM.

**Q.** What about the ED50 [24] of the same molecule?
**A.** The ED50 was 0.112 µM.

**Q.** What about the ED50 [25] of the same molecule?
**A.** Its ED50 is 3.39 µM.

**Q.** And the ED50 [26]?
**A.** Its ED50 is 4.43 µM.

**Q.** And the ED50 [27]?
**A.** Its ED50 is 162 µM.

**Q.** And the ED50 [28]?
**A.** Its ED50 is 0.151 µM.

**Q.** And the ED50 [29]?
**A.** The ED50 was 0.248 µM.

**Q.** What about the ED50 [30] of the same molecule?
**A.** Its ED50 is 0.0395 µM.

**Q.** And the ED50 [31]?
**A.** Its ED50 is 5.26 µM.

**Q.** And the ED50 [32]?
**A.** The ED50 was 0.0125 µM.

**Q.** What about the ED50 [33] of the same molecule?
**A.** The ED50 was 0.0497 µM.

**Q.** And the ED50 [34]?
**A.** Its ED50 is 3.06 µM.

**Q.** What about the ED50 [35] of the same molecule?
**A.** The ED50 was 9.39 µM.

**Q.** What about the ED50 (Septin-7 (Homo sapiens)) of the same molecule?
**A.** The ED50 was 3.34 µM.

**Q.** And the ED50 [36]?
**A.** Its ED50 is 1.06 µM.

**Q.** And the ED50 [37]?
**A.** Its ED50 is 732 µM.

**Q.** And the ED50 [38]?
**A.** Its ED50 is 0.044 µM.

**Q.** And the ED50 [39]?
**A.** Its ED50 is 7.63 µM.

**Q.** And the ED50 [40]?
**A.** The ED50 was 13.1 µM.

**Q.** And the ED50 [41]?
**A.** The ED50 was 2.22 µM.

**Q.** What about the ED50 [42] of the same molecule?
**A.** Its ED50 is 0.0217 µM.

**Q.** Which IC50 (Ephrin type-B receptor 4) does the source give for `Cc1ccc(C(=O)Nc2cccc(C(F)(F)F)c2)cc1Nc1nc(-c2cccnc2)nc2nn(C)cc12` here?
**A.** The IC50 was 1.66 µM.

**Q.** What about the IC50 (Ephrin type-B receptor 6) of the same molecule?
**A.** The IC50 was over 50 µM.

**Q.** What about the ED50 [1] of the same molecule?
**A.** Its ED50 is 2.25 µM.

**Q.** What about the ED50 [2] of the same molecule?
**A.** Its ED50 is 7.41 µM.

**Q.** And the ED50 [3]?
**A.** The ED50 was 36.5 µM.

**Q.** And the ED50 [4]?
**A.** The ED50 was 0.0486 µM.

**Q.** What about the ED50 [5] of the same molecule?
**A.** Its ED50 is 8.58 µM.

**Q.** And the ED50 [6]?
**A.** Its ED50 is 0.216 µM.

**Q.** What about the ED50 [7] of the same molecule?
**A.** Its ED50 is 41.7 µM.

**Q.** And the ED50 [8]?
**A.** The ED50 was 0.0716 µM.

**Q.** What about the ED50 [9] of the same molecule?
**A.** The ED50 was 2.85 µM.

**Q.** And the ED50 [10]?
**A.** Its ED50 is 0.214 µM.

**Q.** What about the ED50 [11] of the same molecule?
**A.** Its ED50 is 0.598 µM.

**Q.** What about the ED50 [12] of the same molecule?
**A.** The ED50 was 0.0947 µM.

**Q.** What about the ED50 [13] of the same molecule?
**A.** The ED50 was 0.435 µM.

**Q.** And the ED50 [14]?
**A.** The ED50 was 8.22 µM.

**Q.** And the ED50 [15]?
**A.** The ED50 was 10.1 µM.

**Q.** And the ED50 (Cofilin-1 (Homo sapiens))?
**A.** The ED50 was 0.0624 µM.

**Q.** And the ED50 [16]?
**A.** Its ED50 is 0.0104 µM.

**Q.** What about the ED50 [17] of the same molecule?
**A.** The ED50 was 0.000491 µM.

**Q.** What about the ED50 [18] of the same molecule?
**A.** Its ED50 is 0.0885 µM.

**Q.** And the ED50 [19]?
**A.** The ED50 was 1.17 µM.

**Q.** What about the ED50 [20] of the same molecule?
**A.** Its ED50 is 5.19 µM.

**Q.** What about the ED50 [21] of the same molecule?
**A.** The ED50 was 67.3 µM.

**Q.** And the ED50 [22]?
**A.** The ED50 was 0.00863 µM.

**Q.** And the ED50 [23]?
**A.** The ED50 was 7.19 µM.

**Q.** And the ED50 [24]?
**A.** Its ED50 is 3.28 µM.

**Q.** And the ED50 [25]?
**A.** The ED50 was 0.0024 µM.

**Q.** What about the ED50 [26] of the same molecule?
**A.** The ED50 was 0.105 µM.

**Q.** What about the ED50 [27] of the same molecule?
**A.** The ED50 was 0.365 µM.

**Q.** And the ED50 [28]?
**A.** The ED50 was 0.00201 µM.

**Q.** And the ED50 [29]?
**A.** The ED50 was 0.000276 µM.

**Q.** And the ED50 [30]?
**A.** The ED50 was 1.63 µM.

**Q.** And the ED50 [31]?
**A.** Its ED50 is 0.048 µM.

**Q.** And the ED50 [32]?
**A.** Its ED50 is 16600 µM.

**Q.** What about the ED50 [33] of the same molecule?
**A.** The ED50 was 0.345 µM.

**Q.** What about the ED50 [34] of the same molecule?
**A.** The ED50 was 30.9 µM.

**Q.** And the ED50 [35]?
**A.** The ED50 was 0.0397 µM.

**Q.** And the ED50 (Septin-7 (Homo sapiens))?
**A.** Its ED50 is 3.21 µM.

**Q.** And the ED50 [36]?
**A.** Its ED50 is 0.0813 µM.

**Q.** And the ED50 [37]?
**A.** The ED50 was 0.0876 µM.

**Q.** And the ED50 [38]?
**A.** The ED50 was 0.434 µM.

**Q.** What about the ED50 [39] of the same molecule?
**A.** Its ED50 is 9 µM.

**Q.** And the ED50 [40]?
**A.** The ED50 was 11.4 µM.

**Q.** What about the ED50 [41] of the same molecule?
**A.** The ED50 was 2.66 µM.

**Q.** And the ED50 [42]?
**A.** The ED50 was 0.103 µM.
